For assay [1], the system named is Cladosporium sphaerospermum. Briefly: Antifungal activity against Cladosporium sphaerospermum (Perzig) SPC 491 assessed as detection limit for activity by bioautographic method. The format is functional.
For assay [2], the system named is Cladosporium cladosporioides. Put plainly: Antifungal activity against Cladosporium cladosporioides (Fresen) Vries SPC 140 assessed as detection limit for activity by bioautographic method. The format is functional.
A further assay deals with HeLa. Put plainly: Cytotoxicity against human HeLa cells assessed as reduction in cell viability by MTT assay. The format is functional, cell-based. On the technique in general: Formazan colour is commonly taken as a measure of viable cells.

By IC50 is commonly meant the concentration that inhibits the measured activity by half. Turning to `CCCCCCC[C@H]1OC2=C(C(=O)O[C@@H]2C)[C@@H](O)[C@]1(C)O`, the Activity in assay [1] and in assay [2] was 5 µg each time. Besides, the IC50 with HeLa worked out at 100 µM.
For the compound `CCCCCCC[C@H]1OC2=C(C(=O)O[C@@]2(C)O)[C@@H](O)[C@]1(C)O`, the IC50 in the assay with HeLa is more than 100 µM.
In the case of `CCCCCCC[C@H]1OC2=C(C(=O)[C@@H](C)O2)[C@@H](O)[C@]1(C)O`, the Activity in assay [1] and in assay [2] was 5 µg throughout. For the same compound, the IC50 in the assay on HeLa was 50 µM.
On to `CC[C@@]1(O)C(=O)OCc2c1cc1n(c2=O)Cc2cc3ccccc3nc2-1` [CAMPTOTHECIN], for which, in the assay on HeLa, the IC50 came to 0.12 µM.
In the case of NYSTATIN, the Activity in assay [1] and in assay [2] was 1 µg throughout.
On to `CCCCCCC[C@H]1OC2=C(C(=O)O[C@@H]2C)[C@@H](O)[C@@]1(C)O`, for which the Activity in assay [1] and in assay [2] was 25 µg throughout. The IC50 in the assay on HeLa is more than 100 µM.

(Values after ChEMBL document CHEMBL4118037, “Lactone Derivatives Produced by a Phaeoacremonium sp., an Endophytic Fungus from Senna spectabilis” (J Nat Prod, 2017).)
